Measurements as given in patent publication US20110306597A1, “Nicotinamide Derivatives” (priority 2008, published 2011).

Target: human recombinant H-PGDS (Homo sapiens, UniProt O60760)
Assay: Fluorescence Intensity h-PGDS TBA Enzyme Assay
Assay type: biochemical
Conditions: 1:175,000 human recombinant H-PGDS, highest inhibitor concentration typically 1 μM
Experimental: Fluorescence Intensity h-PGDSTBA Enzyme Assay
Prostaglandin D Synthase (PGDS) converts the substrate prostaglandin H2 (PGH2) to prostaglandin D2. The depletion of PGH2 was measured via an Fe(II) reduction of the remaining PGH2 to malondialdehyde (MDA) and 12-HHT. The enzyme assay is based on the quantitative formation of a fluorescent complex from the non-fluorescent compounds MDA and 2-thiobarbituric acid (TBA), substantially as described in U.S. patent application publication US-2004/152148 by Lombardt.
The enzyme assay (31 μls) contained 100 mM Tris base pH 8.0, 100 μM MgCl2, 0.1 mg/ml IgG Rabbit serum, 5.0 μM PGH2 (Cayman; ethanol solution, #17020), 2.5 mM L-Glutathione (Sigma; reduced form #G4251), 1:175,000 human recombinant H-PGDS (from 1 mg/ml), 0.5% DMSO and inhibitor (varying concentration). Three μls of diluted inhibitor (dissolved in DMSO) was plated into a 384-well assay plate followed by a 25 μl addition of an enzyme solution containing h-PGDS, Tris, MgCl2, IgG and L-Glutathione. After preincubation of inhibitor and enzyme solution for 10 minutes at room temperature, the reaction was initiated with a 3 μl addition of substrate solution in 10 mM HCl. The reaction was terminated after 42 second by the addition (3 μl) of stop buffer containing FeCl2 and citric acid. After addition of 45.5 μls of TBA plates were heated for one hour in a 70 C oven. Plates were cooled at room temperature overnight and read on a plate reader the next day with excitation @ 530 nm and emission @ 565 nm.
IC50's of inhibitors were calculated with a 4-parameter fit using 11 inhibitor concentrations in duplicate with 3-fold serial dilutions. Controls on each plate included no inhibitor (zero % effect) and an inhibitor 10-fold in excess of its' IC50 (100% effect). The highest inhibitor concentration tested was typically 1 μM.

human recombinant H-PGDS, sequence (O60760 whole entry): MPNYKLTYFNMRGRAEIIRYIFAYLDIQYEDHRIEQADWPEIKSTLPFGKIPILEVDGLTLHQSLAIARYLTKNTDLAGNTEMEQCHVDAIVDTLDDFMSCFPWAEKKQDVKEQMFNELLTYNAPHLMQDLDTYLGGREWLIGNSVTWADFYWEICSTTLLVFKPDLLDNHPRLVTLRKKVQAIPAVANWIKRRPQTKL

Q: With `CCOCCCNC(=O)c1ccc(-c2cccc(F)c2)nc1` [Example 38, N-(3-Ethoxypropyl)-6-(3-fluorophenyl)nicotinamide] as the molecule, how does the IC50 read?
A: 14.8 nM

Q: With `O=C(NCCCN1CCOCC1)c1ccc(-c2cccc(F)c2)nc1` [Example 39, 6-(3-Fluorophenyl)-N-(3-morpholin-4-ylpropyl)nicotinamide] as the molecule, how does the IC50 read?
A: 42.8 nM

Q: How did the IC50 turn out when `O=C(NCC1CCCOC1)c1ccc(-c2cccc(F)c2)nc1` (stereo not drawn) [Example 40, 6-(3-Fluorophenyl)-N-(tetrahydro-2H-pyran-3-ylmethyl)nicotinamide] was run?
A: 7.14 nM

Q: Which IC50 does the source give for `O=C(NCCN1CCCOC1=O)c1ccc(-c2cccc(F)c2)nc1` [Example 41, 6-(3-Fluorophenyl)-N-[2-(2-oxo-1,3-oxazinan-3-yl)ethyl]nicotinamide] here?
A: 18.2 nM

Q: For `O=C(NCCC1CCC(=O)N1CCN1CCOCC1)c1ccc(-c2cccc(F)c2)nc1` (stereo not drawn) [Example 42, 6-(3-Fluorophenyl)-N-{2-[1-(2-morpholin-4-ylethyl)-5-oxopyrrolidin-2-yl]ethyl}nicotinamide], which IC50 is on record?
A: 12.6 nM

Q: For `COc1ccc(OCC(O)CNC(=O)c2ccc(-c3cccc(F)c3)nc2)cc1` (stereo not drawn) [Example 43, 6-(3-Fluorophenyl)-N-[2-hydroxy-3-(4-methoxyphenoxy)propyl] nicotinamide], which IC50 is on record?
A: 6.64 nM

Q: How did the IC50 turn out when `COC(=O)CCCNC(=O)c1ccc(-c2cccc(F)c2)nc1` [Example 44, Methyl 4-({[6-(3-fluorophenyl)pyridin-3-yl]carbonyl}amino)butanoate] was run?
A: 13.2 nM

Q: `CCn1cc(-c2nnc(CCNC(=O)c3ccc(-c4cccc(F)c4)nc3)o2)cn1` [Example 45, N-{2-[5-(1-Ethyl-1H-pyrazol-4-yl)-1,3,4-oxadiazol-2-yl]ethyl}-6-(3-fluorophenyl)nicotinamide] was tested. Which IC50 did it give?
A: 30.7 nM

Q: Which IC50 does the source give for `COCCN1C(=O)CCC1CCNC(=O)c1ccc(-c2cccc(F)c2)nc1` (stereo not drawn) [Example 46, 6-(3-Fluorophenyl)-N-{2-[1-(2-methoxyethyl)-5-oxopyrrolidin-2-yl]ethyl}nicotinamide] here?
A: 17.3 nM

Q: How did the IC50 turn out when `O=C(NCCN1CCCC(O)C1)c1ccc(-c2cccc(F)c2)nc1` (stereo not drawn) [Example 47, 6-(3-Fluorophenyl)-N-[2-(3-hydroxypiperidin-1-yl)ethyl]nicotinamide] was run?
A: 21.7 nM

Q: How did the IC50 turn out when `COc1cccn(CCNC(=O)c2ccc(-c3cccc(F)c3)nc2)c1=O` [Example 48, 6-(3-Fluorophenyl)-N-[2-(3-methoxy-2-oxopyridin-1(2H)-yl)ethyl]nicotinamide] was run?
A: 10.7 nM

Q: For `COc1cccc(OCC(O)CNC(=O)c2ccc(-c3cccc(F)c3)nc2)c1` (stereo not drawn) [Example 49, 6-(3-Fluorophenyl)-N-[2-hydroxy-3-(3-methoxyphenoxy)propyl] nicotinamide], which IC50 is on record?
A: 10.8 nM

Q: For `COc1ccc(OC)c(C(O)CNC(=O)c2ccc(-c3cccc(F)c3)nc2)c1` (stereo not drawn) [Example 50, N-[2-(2,5-Dimethoxyphenyl)-2-hydroxyethyl]-6-(3-fluorophenyl)nicotinamide], which IC50 is on record?
A: 8.14 nM

Q: Which IC50 does the source give for `O=C(NCC1CC2(CCN(Cc3cc[nH]n3)CC2)CO1)c1ccc(-c2cccc(F)c2)nc1` (stereo not drawn) [Example 51, 6-(3-Fluorophenyl)-N-{[8-(1H-pyrazol-3-ylmethyl)-2-oxa-8-azaspiro[4.5]dec-3-yl]methyl}nicotinamide] here?
A: 25.4 nM

Q: `CN1CCC2(CC1)COC(CNC(=O)c1ccc(-c3cccc(F)c3)nc1)C2` (stereo not drawn) [Example 52, 6-(3-Fluorophenyl)-N-[(8-methyl-2-oxa-8-azaspiro[4.5]dec-3-yl)methyl]nicotinamide] was tested. Which IC50 did it give?
A: 77.6 nM

Q: `O=C(NCC1CC2(CCN(Cc3ccccn3)CC2)CO1)c1ccc(-c2cccc(F)c2)nc1` (stereo not drawn) [Example 53, 6-(3-Fluorophenyl)-N-{[8-(pyridin-2-ylmethyl)-2-oxa-8-azaspiro[4.5]dec-3-yl]methyl}nicotinamide] was tested. Which IC50 did it give?
A: 19.2 nM

Q: `O=C(NCC1CC2(CCN(c3cnccn3)CC2)CO1)c1ccc(-c2cccc(F)c2)nc1` (stereo not drawn) [Example 54, 6-(3-Fluorophenyl)-N-[(8-pyrazin-2-yl-2-oxa-8-azaspiro[4.5]dec-3-yl)methyl]nicotinamide] was tested. Which IC50 did it give?
A: 13.5 nM

Q: For `COc1ccc(C(Cc2cc(C)no2)NC(=O)c2ccc(-c3cccc(F)c3)nc2)cc1OC` (stereo not drawn) [Example 55, N-[1-(3,4-Dimethoxyphenyl)-2-(3-methylisoxazol-5-yl)ethyl]-6-(3-fluorophenyl)nicotinamide], which IC50 is on record?
A: 11.1 nM

Q: How did the IC50 turn out when `Cc1cnc(CN2C(=O)CCC2CCNC(=O)c2ccc(-c3cccc(F)c3)nc2)cn1` (stereo not drawn) [Example 56, 6-(3-Fluorophenyl)-N-(2-{1-[(5-methylpyrazin-2-yl)methyl]-5-oxopyrrolidin-2-yl}ethyl)nicotinamide] was run?
A: 19.8 nM

Q: How did the IC50 turn out when `O=C(NCc1nnc(Cc2ccccc2)o1)c1ccc(-c2cccc(F)c2)nc1` [Example 57, N-[(5-Benzyl-1,3,4-oxadiazol-2-yl)methyl]-6-(3-fluorophenyl)nicotinamide] was run?
A: 32.8 nM

Q: With `O=C(NCCC1CCC(=O)N1Cc1ccccc1)c1ccc(-c2cccc(F)c2)nc1` (stereo not drawn) [Example 58, N-[2-(1-Benzyl-5-oxopyrrolidin-2-yl)ethyl]-6-(3-fluorophenyl)nicotinamide] as the molecule, how does the IC50 read?
A: 9.46 nM

Q: With `O=C(NC(c1ccc(F)c(F)c1)c1nn[nH]n1)c1ccc(-c2cccc(F)c2)nc1` (stereo not drawn) [Example 59, N-[(3,4-Difluorophenyl)(2H-tetrazol-5-yl)methyl]-6-(3-fluorophenyl)nicotinamide] as the molecule, how does the IC50 read?
A: 10.6 nM

Q: `CCC(NC(=O)c1ccc(-c2cccc(F)c2)nc1)c1nn[nH]n1` (stereo not drawn) [Example 60, 6-(3-Fluorophenyl)-N-[1-(2H-tetrazol-5-yl)propyl]nicotinamide] was tested. Which IC50 did it give?
A: 38.9 nM

Q: Which IC50 does the source give for `CCc1csc(CNC(=O)c2ccc(-c3cccc(F)c3)nc2)n1` [Example 61, N-[(4-Ethyl-1,3-thiazol-2-yl)methyl]-6-(3-fluorophenyl)nicotinamide] here?
A: 5.48 nM

Q: With `O=C(NC(CCc1ccccc1)c1nn[nH]n1)c1ccc(-c2cccc(F)c2)nc1` (stereo not drawn) [Example 62, 6-(3-Fluorophenyl)-N-[3-phenyl-1-(2H-tetrazol-5-yl)propyl]nicotinamide] as the molecule, how does the IC50 read?
A: 17.2 nM

Q: With `O=C(NC1CCCOC1)c1ccc(-c2cccc(F)c2)nc1` (stereo not drawn) [Example 63, 6-(3-Fluorophenyl)-N-(tetrahydro-2H-pyran-3-yl)nicotinamide] as the molecule, how does the IC50 read?
A: 5.32 nM

Q: `O=C(NCCNc1ncccn1)c1ccc(-c2cccc(F)c2)nc1` [Example 64, 6-(3-Fluorophenyl)-N-[2-(pyrimidin-2-ylamino)ethyl]nicotinamide] was tested. Which IC50 did it give?
A: 12.9 nM

Q: For `CC[C@H](CC#N)NC(=O)c1ccc(-c2cccc(F)c2)nc1` [Example 65, N-[(1R)-1-(Cyanomethyl)propyl]-6-(3-fluorophenyl)nicotinamide], which IC50 is on record?
A: 60.3 nM

Q: Which IC50 does the source give for `COC(=O)CC[C@@H](NC(=O)c1ccc(-c2cccc(F)c2)nc1)C(=O)OC` [Example 66, Dimethyl N-{[6-(3-fluorophenyl)pyridin-3-yl]carbonyl}-D-glutamate] here?
A: 95.2 nM

Q: For `O=C(NCC1CN(Cc2ccccn2)C(=O)CO1)c1ccc(-c2cccc(F)c2)nc1` (stereo not drawn) [Example 67, 6-(3-Fluorophenyl)-N-{[5-oxo-4-(pyridin-2-ylmethyl)morpholin-2-yl]methyl}nicotinamide], which IC50 is on record?
A: 31.9 nM

Q: Which IC50 does the source give for `CN(C)[C@@H]1COC[C@H]1NC(=O)c1ccc(-c2cccc(F)c2)nc1` [Example 68, N-[(3S,4S)-4-(Dimethylamino)tetrahydro-furan-3-yl]-6-(3-fluorophenyl)nicotinamide] here?
A: 75.8 nM

Q: With `Cc1nc(CNC(=O)c2ccc(-c3cccc(F)c3)nc2)cs1` [Example 69, 6-(3-Fluorophenyl)-N-[(2-methyl-1,3-thiazol-4-yl)methyl]nicotinamide] as the molecule, how does the IC50 read?
A: 23.9 nM

Q: Which IC50 does the source give for `CCCCN1CC(CNC(=O)c2ccc(-c3cccc(F)c3)nc2)OCC1=O` (stereo not drawn) [Example 70, N-[(4-Butyl-5-oxomorpholin-2-yl)methyl]-6-(3-fluorophenyl)nicotinamide] here?
A: 34.2 nM

Q: With `Cc1cnc(CN2CC(CNC(=O)c3ccc(-c4cccc(F)c4)nc3)OCC2=O)cn1` (stereo not drawn) [Example 71, 6-(3-Fluorophenyl)-N-({4-[(5-methylpyrazin-2-yl)methyl]-5-oxomorpholin-2-yl}methyl)nicotinamide] as the molecule, how does the IC50 read?
A: 61.8 nM

Q: Which IC50 does the source give for `O=C(NC[C@@H]1CCCN2CCCC[C@H]12)c1ccc(-c2cccc(F)c2)nc1` [Example 73, 6-(3-Fluorophenyl)-N-[(1S,9aR)-octahydro-2H-quinolizin-1-ylmethyl]nicotinamide] here?
A: 92.9 nM

Q: For `CCN1CCC[C@@H]1CNC(=O)c1ccc(-c2cccc(F)c2)nc1` [Example 74, N-{[(2R)-1-Ethylpyrrolidin-2-yl]methyl}-6-(3-fluorophenyl) nicotinamide], which IC50 is on record?
A: 42.3 nM

Q: Which IC50 does the source give for `O=C(NCCC1CCC(=O)N1CCN1CCCC1)c1ccc(-c2cccc(F)c2)nc1` (stereo not drawn) [Example 75, 6-(3-Fluorophenyl)-N-{2-[5-oxo-1-(2-pyrrolidin-1-ylethyl)pyrrolidin-2-yl]ethyl}nicotinamide] here?
A: 48 nM

Q: For `O=C(NCCOCc1nc2ccccc2[nH]1)c1ccc(-c2cccc(F)c2)nc1` [Example 76, N-[2-(1H-Benzimidazol-2-ylmethoxy)ethyl]-6-(3-fluorophenyl)nicotinamide], which IC50 is on record?
A: 34.7 nM

Q: How did the IC50 turn out when `CN(C)CCCCCNC(=O)c1ccc(-c2cccc(F)c2)nc1` [Example 77, N-[5-(Dimethylamino)pentyl]-6-(3-fluorophenyl)nicotinamide] was run?
A: 90.3 nM
